Laboratory results from a melting point compilation (Tetko et al.; mined from patent text by program, amines drawn as free bases though some values may be those of a salt).

Row | SMILES | melting point [°C]
1 | CCOC(=O)C(CCCCNC(=O)OC(C)(C)C)NC(=O)C=CC(=O)c1ccccc1 (stereo not given) | 91 to 94
2 | CCNC(=O)[C@@H]1C[C@H](OS(C)(=O)=O)CN1C(=O)OC(C)(C)C | 138 to 140
3 | CC(=O)OC1=C(C=O)C=C2OCCC2C1 (stereo not given) | 68 to 70
4 | O=C(O)CCCCCCCCCCC(=O)Nc1ccccc1OCCCC(=O)O | 128 to 130
5 | OC(CC1CCN(CC2CC2)CC1)(c1ccccc1)c1ccc(F)cc1 (stereo not given) | 115 to 116
6 | O=C(Nc1ccc(C(F)(F)F)cc1)Nc1ccc2[nH]c(C(F)(F)F)nc2c1 | 223 to 228
7 | O=C(O)CCC(=O)NCC(=O)N1c2ccccc2N(Cc2ccccc2)C(=O)[C@H]2CCC[C@H]21 (relative stereo) | 148 to 151
8 | COC(C)OC(=O)C1CC(=O)N(c2ccc(C(C)(C)C)cc2)C1 (stereo not given) | 60 to 61
9 | CCCn1nc(C(C)C)c(C(=O)OCOC(=O)C(C)(C)C)c1Cc1ccc(-c2ccccc2-c2nnn(C(c3ccccc3)(c3ccccc3)c3ccccc3)n2)cc1 | 128 to 130
10 | O=C(c1cc(O)cc2cc(-c3ccc(O)cc3)oc12)C(F)(F)F | 215 to 216
11 | O=[N+]([O-])C(CO)(CO)c1ccccc1 | 96 to 97.5
12 | CC(C)CN(CC(O)C(Cc1ccccc1)NC(=O)C(CC(N)=O)NC(=O)c1ccc2ccccc2n1)C(=O)NC(C)(C)C (stereo not given) | 107 to 110
13 | c1cn(Cc2ccc3c(c2)-c2[nH]nc(-c4ccsc4)c2C3)nn1 | 249 to 252
14 | O=C(NC1CCC2(CC1)CSC1=C(O2)c2ccccc2C(=O)C1=O)Oc1cccc(C(F)(F)F)c1 (stereo not given) | 198 to 199
15 | CC(C)(C)OC(=O)Nc1ccc(-c2ccc(S(=O)(=O)n3ccc(/C=C/C(=O)NOC4CCCCO4)c3)cc2)cn1 (stereo not given) | 140 to 146
16 | C=C1C[C@@H]2[C@H](CC[C@]3(C)C(=O)CC[C@@H]23)[C@@]2(C)CCC(=O)C(S)=C12 | 195 to 197
17 | O=C1NC(c2cccs2)=C2C(=O)NC(c3cccs3)=C12 | > 400
18 | CC(C)(C)OC(=O)NC(C(=O)Nc1n[nH]c(=S)s1)c1ccccc1 (stereo not given) | 194 to 195
19 | CCCCCC(C)C(C)c1cc(O)c2c(c1)OC(C)(C)C1=C2CN(CC(=O)N(C)C)CC1 (stereo not given) | 122 to 124
20 | CC1CCC(=O)CC1S(=O)(=O)c1ccccc1 (stereo not given) | 71 to 74
21 | CC(C)NC(=O)CCC(=NNC(N)=S)c1ccccc1 | 66 to 71
22 | Cc1c(-c2cc(C(F)(F)F)cc(C(F)(F)F)c2)ccc2nc(N=CN(C)C)nc(N=CN(C)C)c12 | 208 to 210
23 | Cc1ccc(S(=O)(=O)N(C)c2cccc(-c3ccnc4c(C(=O)c5ccccc5)cnn34)c2)cc1 | 170 to 171

Row | SMILES | melting point [°C]
24 | O=C(Nc1ccc(CN2CCCCC2)cc1)C1=Cc2cc(-c3ccccc3)ccc2CC1 | 163 to 164
25 | O=c1oc(-c2ccc([N+](=O)[O-])cc2)nn1-c1ccc(C(F)(F)F)cc1 | 160 to 163
26 | O=P(O)(O)C(O)(CC(O)c1ccccc1)P(=O)(O)O (stereo not given) | 132
27 | CC[Si](C#CC1(COCc2ccccc2)OC(n2ccc(=O)[nH]c2=O)C(O)C1OCc1ccccc1)(CC)CC (stereo not given) | 119 to 120
28 | O=C(CNC(=O)c1ccc([N+](=O)[O-])c(F)c1)OCc1ccccc1 | 118 to 120
29 | Cc1nc(N2CCN(CC3CC3)C2=O)sc1C(=O)NCc1ccc(F)cc1 | 146 to 147
30 | CC(C)c1nc(-c2ccc(F)cc2)c(C=O)c(C(C)C)c1CO | 147
31 | CCN(CC)C(=O)N1SN(C(C)C)C(=O)c2ccccc21 | 103 to 104
32 | COc1nc(NC(=S)NS(=O)(=O)c2ccccc2)nc(OC)n1 | 148 to 150
33 | CCCNC(=O)C1(CCCCN2CCC(NC(=O)OC(C)(C)C)CC2)c2ccccc2-c2ccccc21 | 118 to 120
34 | CCn1c(C)c(C2(c3c(-c4ccccc4)c(-c4ccccc4)c4ccccn34)OC(=O)c3cccnc32)c2ccccc21 (stereo not given) | 206 to 208
35 | CNC1(CC2CCCCC2)C(=O)Nc2ccc(Cl)cc21 (stereo not given) | 168 to 169
36 | CC12C=CC(=O)C=C1C1OC1C1C2CCC2(C)C(=O)CCC12 (stereo not given) | 182 to 194
37 | Cc1ccc(Sc2ccc(N)cc2)cc1 | 76
38 | O=C(N=C1CCCN1Cc1ccccc1)Nc1cccc(Cl)c1 | 91 to 93
39 | O=C(C(=O)c1cnn(CC(F)(F)F)c1)c1cccc(Br)c1 | 66 to 67
40 | CNc1ccc(F)cc1C(C)=O | 43 to 45
41 | OCc1cc(OC2CCCC2)c(OC(F)F)cn1 | 85 to 86
42 | CCC(=O)Nc1ccc(C(=O)[C@H]2C[C@H]2C(=O)O)cc1 (relative stereo) | 182 to 183
43 | CC(C)c1ncc(O)c(O)n1 | 187
44 | O=C1N=C(N2CCNCC2)SC1=Cc1cccc(-c2cc(F)c(O)c(C34CC5CC(CC(C5)C3)C4)c2)c1 | 230 to 233
45 | CCCCCCCCCCCCCCOc1cccc(C(=O)N(CC(=O)OC)CC(=O)OC)c1 | < 23
46 | CN1CCN(C(=O)CN2C(=O)C(NC(=O)Nc3ccc(Cl)cc3)N=C(c3ccccc3)c3ccccc32)CC1 (stereo not given) | 278 to 280

Now from value to molecule:

Row | melting point [°C] | SMILES
47 | 114 to 117 | COc1cc([N+](=O)[O-])ccc1-c1cnc(C)s1
48 | 122 to 123 | COc1ccc2ccc3c(c2c1)C(CC#N)CCO3 (stereo not given)
49 | 91 to 93 | CCCCOC(=O)c1cc([N+](=O)[O-])ccc1N
50 | 214 to 216 | COc1cc2ncnc(N3CCN(C(=S)NCc4ccc([N+](=O)[O-])cc4)CC3)c2cc1OC
51 | > 300 | O=C(O)c1ccccc1Sc1c(O)c2c(Cl)cc(Cl)cc2[nH]c1=O
52 | 155 to 156 | O=C(Nc1ccccc1)c1cc([N+](=O)[O-])ccc1Cl
53 | 223 to 227 | CCOP(=O)(Cc1nnc2c(=O)[nH]c3ccc(Cl)cc3n12)OCC
54 | > 300 | Cc1nnc(-c2ccc3occ(-c4ccc(C(=O)O)cc4)c3c2)o1
55 | 141 to 143 | CCCCc1ncc(CNC(Cc2ccccc2)C(=O)O)n1Cc1ccccc1Cl (stereo not given)
56 | 74 to 75 | COc1ccccc1CC(O)(Cc1cccs1)C(C)(C)C (stereo not given)
57 | 104 to 106 | CCOC(=O)CCCCCOc1ccc(Nc2ccncc2)cc1
58 | 219 to 221 | CCCc1nc2c(N)nc3ccccc3c2n1CC(C)(C)C(N)=O
59 | 76 to 79 | COc1cc(CC(=O)NCCCc2ccc(C)c(C)c2)ccc1OCCNCCO
60 | 155 to 157 | COc1ccccc1CCCNc1ccc(C(=O)O)cc1
61 | 109 to 112 | CNC(=O)N(OC)c1ccccc1COc1ccc2c(c1)OCC2=NOC
62 | < 20 | c1ccc(CCOc2c3c(nc4ccccc24)CCN(Cc2ccccc2)CC3)cc1
63 | 190 | COc1ccc(N2C(=O)C(N=[N+]=[N-])C2c2ccc(C(=O)O)cc2)cc1 (stereo not given)
64 | 169 to 171 | CC(C)(N)CNc1ccnc2cc(Cl)ccc12
65 | 212 to 214 | O=C1CCC(N2C(=O)c3ccc(CNC(=O)c4ccccn4)cc3C2=O)C(=O)N1 (stereo not given)
66 | 210 to 213 | COc1ccc(C(=O)Nc2c(Cl)cncc2Cl)c2c3cc(Cl)ccc3n(Cc3ccccc3)c12
67 | 138 | Cc1c(C(=O)N(C)N2CC=CCC2)nn(-c2ccc(Cl)cc2Cl)c1-c1ccc(Cl)cc1
68 | 213 to 219 | COc1cc2c(c3c1OC(C)(C)C3)C(c1cccc(NC(=O)c3cccnc3)c1)=NC(C)(C)C2
69 | 114 to 115 | COC(=O)c1cc(C(C)=O)c(OCc2ccccc2)cc1OCc1ccccc1
70 | 233 to 234 | CC(C)c1ccc(-c2ccnc(-c3cccc(C(=O)O)c3)c2)cc1
71 | 83 to 86 | C=Cc1ccc2ccccc2c1-c1ccc(O)c(OC)c1

Row | melting point [°C] | SMILES
72 | 144 to 146 | CCC(C)(c1ccc(O)c(C)c1)c1ccc(O)c(C)c1
73 | 133 to 136 | CCOC(=O)c1ccc(-c2ccc(-c3ccccc3OC)c(-c3ccc4c(c3)C(C)(C)CCC4(C)C)c2)cc1
74 | 181 to 183 | CCCc1c(OCC(O)CS(=O)(=O)c2ccc(CC(=O)O)c(Cl)c2Cl)ccc(C(C)=O)c1O (stereo not given)
75 | 244 to 247 | O=C(O)c1ccc2c(-c3ccccc3)c([N+](=O)[O-])oc2c1
76 | 216 to 217 | COc1ccc(CNc2nc(-c3ccccc3)c(-c3ccc(=O)n(C(C)C)n3)nc2C(=O)O)cc1
77 | 115 to 117 | COC(=O)c1cccc(-c2nc(CO)cs2)c1
78 | 228 to 233 | COC(=O)C1=C(C)NC2=C(C(=O)OC2C)C1c1ccccc1Cl (stereo not given)
79 | 187 to 188 | Clc1ccc2c(Nc3ccc(N4CCOCC4)c(CN4CCCC4)c3)ccnc2c1
80 | 220 to 222 | CCOc1cc2c(Nc3cc(OC)c(Cl)cc3Cl)c(C#N)cnc2cc1C#CCCO
81 | 160 | COc1ccc(N(c2ccc(C=Cc3ccc4ccc5cccc6ccc3c4c56)cc2)c2ccc(OC)cc2)cc1
82 | 118 to 120 | COC(=O)C(CNC(C)=O)c1cccc2ccc(OC)cc12 (stereo not given)
83 | 117 to 118 | CCS(=O)(=O)c1ccc(Oc2ccc(Cl)c(Cl)c2)nc1
84 | 235 to 237 | CCC(C)c1ccc(-n2c(-c3cc(C)c(OCCO)c(C)c3)nc3cc(S(C)(=O)=O)ccc3c2=O)cc1 (stereo not given)
85 | 213 to 215 | COc1cc(OC)nc(C2(OC(C)=O)OC(=O)c3c(Cl)cccc32)n1 (stereo not given)
86 | 263 to 266 | COc1ccc2oc3ccc([N+](=O)[O-])cc3c2c1C(=O)Nc1cccnc1
87 | 65 | CCOC(=O)CCCNc1cccc(Br)c1
88 | 106 to 107 | CCCc1c(OCCCOc2ccc(C(=O)CCCCC(=O)O)cc2F)ccc(C(C)=O)c1O
89 | 169 to 170 | CCN(CC)C(=CC1=NCCCC1)c1ccccc1
90 | 214 to 217 | CCOP(=O)(CC(=O)Nc1cc2c(Nc3ccc(F)c(Br)c3)ncnc2cn1)OCC
91 | 226 | CCc1nc(Cl)nc(N)c1C#N
92 | 171 to 172 | Cc1cccnc1C(=O)c1[nH]c2cc(Cl)ccc2c1N
93 | 160 to 161 | COc1ccc(Nc2ccc(Nc3ncnc4cc(-c5ccccc5)sc34)cc2)cc1OC
94 | 95 to 96 | COC(=O)CCc1oc(-n2ccnc2)nc1-c1ccc(Cl)cc1
95 | 104 to 107 | Cc1nc2c(-c3cccc(N4CCN(CCO)CC4)c3)cnn2c(N)c1-c1ccc(F)c(Cl)c1
